Assay results from patent publication US8709405B2, “Cancer vaccines containing epitopes of oncofetal antigen” (South Alabama Medical Science Foundation, priority 2002, dated 2014).

How the values were obtained:
Type in all cases: cell-based, BALB/c mouse
Th1 clone H1 = assay: BUdR incorporation ELISA proliferation assay, Th1 clone H1; conditions: Table 12
Description: (§1) The epitopes recognized by 15 iLRP-reactive T cell clones derived from either naive BALB/c mice, BALB/c mice bearing MCA1315 fibrosarcoma tumors, or from BALB/c mice immunized with either 1 or 10 μg of recombinant murine iLRP were determined by testing the proliferation of those clones to overlapping peptides spanning the region of the iLRP molecule recognized by each clone in the presence of IL-2, as a growth factor for T cells and irradiated, T cell-depleted, syngeneic spleen cells as antigen-presenting cells. Proliferation was measured through ELISA determination of 5-bromodeoxyuridine incorporation during culture.
(§2) More specifically, the epitope-specificity of the iLRP-specific Th1, Tc, and Ts clones was determined using a modification of the 5′-bromodeoxyuridine (BudR) incorporation ELISA technique described in Rohrer, J. W., A. L. Barsoum, D. L. Dyess, J. A. Tucker, and J. H. Coggin, Jr. 1999. Human breast carcinoma patients develop clonable oncofetal antigen-specific effector and regulatory T lymphocytes. J. Immunol. 162:6880, using the Biotrak BUdR incorporation assay (Amersham, Arlington Heights, Ill.). […] When the required color density was reached, the reaction was stopped by adding 25 μl of 1M sulfuric acid to each well and the plate read on a microELISA reader at 450 nm. […]

Th1 clone L3 = assay: BUdR incorporation ELISA proliferation assay, Th1 clone L3; conditions: Table 12
Description: as §1, §2

[1] = system: CD8 iLRP-specific T cell clone M11 (Ts); assay: BUdR incorporation ELISA proliferation assay, Ts clone M11; conditions: Table 5
Description: as §1, §2

Tc Clone L2 = assay: BUdR incorporation ELISA proliferation assay, Tc clone L2; conditions: Table 11
Description: as §1, §2

Th1 Clone NC1 = assay: BUdR incorporation ELISA proliferation assay, Th1 clone NC1; conditions: Table 11
Description: as §1, §2

CD8 T cell clone M3 (Tc) = assay: BUdR incorporation ELISA proliferation assay, Tc clone M3; conditions: Table 4
Description: as §1, §2

[2] = system: CD8 iLRP-specific T cell clone L6 (Tc); assay: BUdR incorporation ELISA proliferation assay, Tc clone L6; conditions: Table 5
Description: as §1
More specifically, the epitope-specificity of the iLRP-specific Th1, Tc, and Ts clones was determined using a modification of the 5′-bromodeoxyuridine (BudR) incorporation ELISA technique described in Rohrer, J. W., A. L. Barsoum, D. L. Dyess, J. A. Tucker, and J. H. Coggin, Jr. 1999. Human breast carcinoma patients develop clonable oncofetal antigen-specific effector and regulatory T lymphocytes. J. Immunol. 162:6880, using the Biotrak BUdR incorporation assay (Amersham, Arlington Heights, Ill.). Briefly, at the time of restimulation of the clones, a portion of the cloned T cells were assayed for proliferation to antigen-presenting cells (APC) and various iLRP peptides. The assay was performed with 10,000 viable cloned T cells/well plus […] irradiated syngeneic spleen cells (APC) plus 100 ng/well of intact iLRP/OFA protein or the various truncated iLRP/OFA proteins or the various iLRP/OFA peptides in Iscove's modified Dulbecco's medium (IMDM) containing 2 mM L-glutamine, 100 U/ml of penicillin G, 100 μg of streptomycin sulfate, and 10% fetal calf serum. The cells were cultured for a total of 48 hours. After 24 hours of culture 5′-bromodeoxyuridine was added to a final concentration of 10 μM/well. The cells were cultured for another 24 hours. […] When the required color density was reached, the reaction was stopped by adding 25 μl of 1M sulfuric acid to each well and the plate read on a microELISA reader at 450 nm. […]

CD8 T cell clone H5 (Ts) = assay: BUdR incorporation ELISA proliferation assay, Ts clone H5; conditions: Table 4
Description: as §1, §2

Th1 clone M2 = assay: BUdR incorporation ELISA proliferation assay, Th1 clone M2; conditions: Table 12
Description: as §1, §2

Th1 clone NC4 = assay: BUdR incorporation ELISA proliferation assay, Th1 clone NC4; conditions: Table 12
Description: as §1, §2

[3] = 100 ng/well, APC, 100 U/ml IL-2, two values given

Substance: AQPEVADWSEGV [P21 (241-252)]
- Proliferation Results (A450) of Th1 Clone H1 (Th1 clone H1; [3]): .02, .02 A450
- Response of clone L3 (in words) (Th1 clone L3): responded best

Substance: ATGATPIAGRFT [P18 (aa 93-104)]
- Proliferation of clone M11 (in words) [1]: proliferated equally well

Substance: EEFQGEWTAPAP [P17 (225-236)]
- Proliferation of CD8 Tc clone L2 (in words) (Tc Clone L2): proliferated identically

Substance: GEWTAPAPEFTA [P18 (229-240)]
- Proliferation of CD8 Tc clone L2 (in words) (Tc Clone L2): proliferated identically
- Response of Th1 clone NC1 (in words) (Th1 Clone NC1): responded best

Substance: INLKRTWEKLLL [P7 (aa 49-60)]
- Proliferation of clone M3 (in words) (CD8 T cell clone M3 (Tc)): proliferated to iLRP peptides 7 and 8 equally well

Substance: ISSRNTGQRAVL [P14 (aa 77-88)]
- Proliferation of clone L6 (in words) [2]: proliferated equally well

Substance: NTGQRAVLKFAA [P15 (aa 81-92)]
- Proliferation of clone L6 (in words) [2]: proliferated equally well

Substance: P10 (aa 61-72): iLRP 12-mer peptide, amino acids 61-72 (AARAIVAIENPA)
- BUdR incorporation, CD8 iLRP-specific T cell clone L6 (Tc) ([2]; 100 ng/well stimulant with APC, two values given): .017, .017 A450

Substance: QMEQYIYKRKSD [P3 (aa 33-44)]
- Proliferation of clone H5 (in words) (CD8 T cell clone H5 (Ts)): proliferated to iLRP peptides 3 and 4 equally well

Substance: QVPSVPIQQFPT [P24 (253-264)]
- Response of clone M2 (in words) (Th1 clone M2): responded best

Substance: RTWEKLLLAARA [P8 (aa 53-64)]
- Proliferation of clone M3 (in words) (CD8 T cell clone M3 (Tc)): proliferated to iLRP peptides 7 and 8 equally well

Substance: SAAPTAQATEWV [P30 (277-288)]
- Response of clone H1 (in words) (Th1 clone H1): responded best

Substance: TAQATEWVGATT [P31 (281-292)]
- Proliferation Results (A450) of Th1 Clone L3 (Th1 clone L3; [3]): .02, .02 A450

Substance: TEWVGATTDWS [P32 (285-295)]
- Response of clone NC4 (in words) (Th1 clone NC4): responded best

Substance: TPIAGRFTPGTF [P19 (aa 97-108)]
- Proliferation of clone M11 (in words) [1]: proliferated equally well

Substance: YIYKRKSDGTYI [P4 (aa 37-48)]
- Proliferation of clone H5 (in words) (CD8 T cell clone H5 (Ts)): proliferated to iLRP peptides 3 and 4 equally well
